Values of other authors as cited in patent US20050220753A1, “Hydrophilic polymers-flavoids conjugates and pharmaceutical compositions comprising them” (BEIJING JIANKAI TECHNOLOGY CO., LTD, priority 2002, published 2005).
Read-outs that look alike come from different tables or passages of the source.

Key:
[1] = rats, intravenous injection
[2] = human, intravenously infused

SMILES	absorption half-life [1]	elimination half-life [1]	elimination half-life [2]
O=c1cc(-c2ccccc2)oc2cc(O)c(O)c(O)c12 [Baicalein]	13 min	42 min	
O=c1c(-c2ccc(O)cc2)coc2c([C@@H]3O[C@H](CO)[C@@H](O)[C@H](O)[C@H]3O)c(O)ccc12 [Puerarin]			74 min
